Source: the NIST ThermoML archive (doi:10.1021/je100638g)

Legend:
[1] = Molar enthalpy of transition or fusion; conditions: Crystal; DSC
[2] = for mass density / viscosity: 100 kPa, Liquid; for Normal melting temperature: Crystal, DTA
[3] = xn = mol fraction of the nth substance listed; conditions: 100 kPa, Liquid

CCCn1cc[n+](C)c1.F[P-](F)(F)(F)(F)F [1-methyl-3-propylimidazolium hexafluorophosphate]
Conditions	Molar enthalpy of transition or fusion [kcal/mol]	Normal melting temperature [°C]
[1]	3.99	–
[2]	–	38.5

[2]
Conditions	mass density [kg/m3]	viscosity [mPa·s]
318.15 K	1397.5	85.01
323.15 K	1393.2	68.18
328.15 K	1389	55.46
333.15 K	1384.7	45.7
338.15 K	1380.5	38.09
343.15 K	1376.3	32.1
348.15 K	1372.1	27.32
353.15 K	1367.9	23.47
358.15 K	1363.8	20.34
363.15 K	1359.6	17.77

CCCn1cc[n+](C)c1.F[P-](F)(F)(F)(F)F [1-methyl-3-propylimidazolium hexafluorophosphate] + O
[3], x2 = 0.306
Conditions	mass density [kg/m3]	viscosity [mPa·s]
303.15 K	1389.2	39.41
308.15 K	1384.7	32.25
313.15 K	1380.2	26.84
318.15 K	1375.7	22.61
323.15 K	1371.3	19.29
328.15 K	1366.9	16.58
333.15 K	1362.5	14.39
338.15 K	1358.1	12.61
343.15 K	1353.8	11.13
348.15 K	1349.4	9.905
353.15 K	1345.1	8.874
358.15 K	1340.8	7.983
363.15 K	1336.5	7.228

CCCc1ccc[n+](C)c1.F[P-](F)(F)(F)(F)F [1-methyl-3-propylpyridinium hexafluorophosphate]
Conditions	Molar enthalpy of transition or fusion [kcal/mol]	Normal melting temperature [°C]
[1]	3.59	–
[2]	–	38.1

[2]
Conditions	mass density [kg/m3]	viscosity [mPa·s]
318.15 K	1365.4	132.87
323.15 K	1361.3	102.17
328.15 K	1357.3	79.97
333.15 K	1353.2	63.67
338.15 K	1349.2	51.52
343.15 K	1345.2	42.29
348.15 K	1341.2	35.16
353.15 K	1337.2	29.58
358.15 K	1333.2	25.15
363.15 K	1329.2	21.59

CCCc1ccc[n+](C)c1.F[P-](F)(F)(F)(F)F [1-methyl-3-propylpyridinium hexafluorophosphate] + O
[3], x2 = 0.249
Conditions	mass density [kg/m3]	viscosity [mPa·s]
303.15 K	1362.5	73.39
308.15 K	1358.3	57.55
313.15 K	1354	45.98
318.15 K	1349.8	37.36
323.15 K	1345.6	30.81
328.15 K	1341.4	25.75
333.15 K	1337.2	21.76
338.15 K	1333.1	18.6
343.15 K	1328.9	16.04
348.15 K	1324.8	13.98
353.15 K	1320.7	12.28
358.15 K	1316.6	10.86
363.15 K	1312.5	9.677
